Assay results as given in ChEMBL document CHEMBL5385945, “An ascidian Polycarpa aurata-derived pan-inhibitor against coronaviruses targeting Mpro” (Bioorg Med Chem Lett, 2024).

How the values were obtained:
[1] = target: Replicase polyprotein 1ab (Severe acute respiratory syndrome coronavirus 2, UniProt P0DTD1); test: (§1) Inhibition of SARS-CoV-2 Main protease
[2] = target: Replicase polyprotein 1ab (Severe acute respiratory syndrome coronavirus 2) (UniProt P0DTD1); test: Inhibition of SARS-CoV-2 Main protease at 2 uM relative to control
[3] = Cytotoxicity against African green monkey Vero E6 cells assessed as reduction of cell viability; type: toxicity, cell-based, Vero C1008; conditions: chlorocebus sabaeus
[4] = target: Replicase polyprotein 1ab (Severe acute respiratory syndrome coronavirus 2) (UniProt P0DTD1); test: as §1
[5] = Selectivity ratio of CC50 for cytotoxicity against African green monkey Vero E6 cells to EC50 for antiviral activity against SARS-CoV-2 infected in African green monkey Vero E6 cells; type: toxicity, cell-based, Vero C1008; conditions: read-out: Ratio CC50/EC50
[6] = system: Porcine epidemic diarrhea virus; test: Antiviral activity against Porcine epidemic diarrhea virus infected in African green monkey Vero E6 cells assessed as inhibition of viral replication; type: functional, organism-based; conditions: Vero C1008
SARS-CoV-2 = test: Antiviral activity against SARS-CoV-2 infected in African green monkey Vero E6 cells assessed as inhibition of viral replication; type: functional, organism-based; conditions: Severe acute respiratory syndrome coronavirus 2, Vero C1008
[7] = Inhibition of Porcine epidemic diarrhea virus Main protease

| SMILES | IC50 [1] [nM] | inhibition [2] [%] | CC50 [3] [µM] | inhibition [4] | selectivity ratio [5] | EC50 [6] [µM] | EC50 (SARS-CoV-2) [µM] | IC50 [7] [nM] |
| --- | --- | --- | --- | --- | --- | --- | --- | --- |
| CC(C)=CC[C@@H](OC(=O)CC(C)(C)O)C1=CC(=O)c2c(O)ccc(O)c2C1=O [BETA-HYDROXYISOVALERYLSHIKONIN] | 1020 | > 50 | – | – | – | – | – | – |
| CC(=O)O[C@H](CC=C(C)C)C1=CC(=O)c2c(O)ccc(O)c2C1=O [ACETYLSHIKONIN] | 350 | > 50 | – | – | – | – | – | – |
| COc1ccc(-c2nc(N)n(C)c2SSc2c(-c3ccc(OC)cc3)nc(N)n2C)cc1 | 30 | > 50 | 50.2 | Dose-Dependent Effect | > 10 | 5.68 | 4.09 | 120 |
